Reference: US9926302B2, “Heteroaryl substituted heterocyclyl sulfones” (priority 2014, dated 2018)

What follows are compounds tested against T1, Human CaV2.2 channels (Homo sapiens, UniProt Q00975) (assay: Fluorescence assay for CaV2.2 channels using potassium depolarization to induce channel opening (FLIPR, Fluo 4)). Details: 3 μM test compound; alternative assay buffer 30 mM KCl (inactivated channel state); HEK293 cells stably expressing human CaV2.2.
T1 construct: expressed in transfected cells
T1 sequence (P54289 947-1103): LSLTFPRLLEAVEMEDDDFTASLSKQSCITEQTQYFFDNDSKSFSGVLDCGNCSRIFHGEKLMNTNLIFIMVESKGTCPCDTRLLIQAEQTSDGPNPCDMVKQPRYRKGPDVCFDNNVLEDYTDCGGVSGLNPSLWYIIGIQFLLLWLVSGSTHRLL
T1 sequence (P54289 25-946): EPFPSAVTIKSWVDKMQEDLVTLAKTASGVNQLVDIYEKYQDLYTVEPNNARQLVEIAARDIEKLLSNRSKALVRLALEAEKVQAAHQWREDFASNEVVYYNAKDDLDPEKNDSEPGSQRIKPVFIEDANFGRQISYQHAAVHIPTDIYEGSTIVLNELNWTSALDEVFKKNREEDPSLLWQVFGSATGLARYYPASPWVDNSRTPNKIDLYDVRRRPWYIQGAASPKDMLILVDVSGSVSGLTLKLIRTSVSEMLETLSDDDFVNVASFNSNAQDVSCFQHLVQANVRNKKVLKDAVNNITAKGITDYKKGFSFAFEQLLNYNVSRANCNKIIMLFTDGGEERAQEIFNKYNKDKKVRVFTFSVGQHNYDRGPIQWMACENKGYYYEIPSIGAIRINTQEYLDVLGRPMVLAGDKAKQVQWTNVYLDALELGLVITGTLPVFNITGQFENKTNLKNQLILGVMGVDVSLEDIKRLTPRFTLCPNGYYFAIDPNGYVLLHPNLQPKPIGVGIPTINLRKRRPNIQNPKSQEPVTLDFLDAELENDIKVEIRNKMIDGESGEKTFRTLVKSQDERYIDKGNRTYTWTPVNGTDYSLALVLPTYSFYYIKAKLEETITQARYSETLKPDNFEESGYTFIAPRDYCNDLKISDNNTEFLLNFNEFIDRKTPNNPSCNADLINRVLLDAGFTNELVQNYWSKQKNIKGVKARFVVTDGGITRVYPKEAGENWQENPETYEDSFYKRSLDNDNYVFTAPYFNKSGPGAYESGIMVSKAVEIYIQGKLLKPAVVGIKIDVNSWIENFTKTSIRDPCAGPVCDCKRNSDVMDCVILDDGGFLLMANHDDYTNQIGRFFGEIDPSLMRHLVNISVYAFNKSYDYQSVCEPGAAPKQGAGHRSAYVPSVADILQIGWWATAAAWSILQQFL
T1 sequence (P54284 whole entry, further chain): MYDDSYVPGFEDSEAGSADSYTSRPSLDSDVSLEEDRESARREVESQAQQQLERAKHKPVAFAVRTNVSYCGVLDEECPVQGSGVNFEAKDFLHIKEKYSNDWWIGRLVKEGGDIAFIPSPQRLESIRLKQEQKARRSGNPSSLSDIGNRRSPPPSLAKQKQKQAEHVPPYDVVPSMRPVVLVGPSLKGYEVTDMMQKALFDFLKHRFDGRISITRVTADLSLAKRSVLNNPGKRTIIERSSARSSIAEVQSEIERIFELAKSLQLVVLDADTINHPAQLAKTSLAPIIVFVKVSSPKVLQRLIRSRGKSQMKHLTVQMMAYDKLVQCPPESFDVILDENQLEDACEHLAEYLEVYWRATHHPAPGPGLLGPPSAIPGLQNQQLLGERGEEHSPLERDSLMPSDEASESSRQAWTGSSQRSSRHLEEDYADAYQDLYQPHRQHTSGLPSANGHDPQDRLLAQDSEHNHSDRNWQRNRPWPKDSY
T1 sequence (Q00975 whole entry): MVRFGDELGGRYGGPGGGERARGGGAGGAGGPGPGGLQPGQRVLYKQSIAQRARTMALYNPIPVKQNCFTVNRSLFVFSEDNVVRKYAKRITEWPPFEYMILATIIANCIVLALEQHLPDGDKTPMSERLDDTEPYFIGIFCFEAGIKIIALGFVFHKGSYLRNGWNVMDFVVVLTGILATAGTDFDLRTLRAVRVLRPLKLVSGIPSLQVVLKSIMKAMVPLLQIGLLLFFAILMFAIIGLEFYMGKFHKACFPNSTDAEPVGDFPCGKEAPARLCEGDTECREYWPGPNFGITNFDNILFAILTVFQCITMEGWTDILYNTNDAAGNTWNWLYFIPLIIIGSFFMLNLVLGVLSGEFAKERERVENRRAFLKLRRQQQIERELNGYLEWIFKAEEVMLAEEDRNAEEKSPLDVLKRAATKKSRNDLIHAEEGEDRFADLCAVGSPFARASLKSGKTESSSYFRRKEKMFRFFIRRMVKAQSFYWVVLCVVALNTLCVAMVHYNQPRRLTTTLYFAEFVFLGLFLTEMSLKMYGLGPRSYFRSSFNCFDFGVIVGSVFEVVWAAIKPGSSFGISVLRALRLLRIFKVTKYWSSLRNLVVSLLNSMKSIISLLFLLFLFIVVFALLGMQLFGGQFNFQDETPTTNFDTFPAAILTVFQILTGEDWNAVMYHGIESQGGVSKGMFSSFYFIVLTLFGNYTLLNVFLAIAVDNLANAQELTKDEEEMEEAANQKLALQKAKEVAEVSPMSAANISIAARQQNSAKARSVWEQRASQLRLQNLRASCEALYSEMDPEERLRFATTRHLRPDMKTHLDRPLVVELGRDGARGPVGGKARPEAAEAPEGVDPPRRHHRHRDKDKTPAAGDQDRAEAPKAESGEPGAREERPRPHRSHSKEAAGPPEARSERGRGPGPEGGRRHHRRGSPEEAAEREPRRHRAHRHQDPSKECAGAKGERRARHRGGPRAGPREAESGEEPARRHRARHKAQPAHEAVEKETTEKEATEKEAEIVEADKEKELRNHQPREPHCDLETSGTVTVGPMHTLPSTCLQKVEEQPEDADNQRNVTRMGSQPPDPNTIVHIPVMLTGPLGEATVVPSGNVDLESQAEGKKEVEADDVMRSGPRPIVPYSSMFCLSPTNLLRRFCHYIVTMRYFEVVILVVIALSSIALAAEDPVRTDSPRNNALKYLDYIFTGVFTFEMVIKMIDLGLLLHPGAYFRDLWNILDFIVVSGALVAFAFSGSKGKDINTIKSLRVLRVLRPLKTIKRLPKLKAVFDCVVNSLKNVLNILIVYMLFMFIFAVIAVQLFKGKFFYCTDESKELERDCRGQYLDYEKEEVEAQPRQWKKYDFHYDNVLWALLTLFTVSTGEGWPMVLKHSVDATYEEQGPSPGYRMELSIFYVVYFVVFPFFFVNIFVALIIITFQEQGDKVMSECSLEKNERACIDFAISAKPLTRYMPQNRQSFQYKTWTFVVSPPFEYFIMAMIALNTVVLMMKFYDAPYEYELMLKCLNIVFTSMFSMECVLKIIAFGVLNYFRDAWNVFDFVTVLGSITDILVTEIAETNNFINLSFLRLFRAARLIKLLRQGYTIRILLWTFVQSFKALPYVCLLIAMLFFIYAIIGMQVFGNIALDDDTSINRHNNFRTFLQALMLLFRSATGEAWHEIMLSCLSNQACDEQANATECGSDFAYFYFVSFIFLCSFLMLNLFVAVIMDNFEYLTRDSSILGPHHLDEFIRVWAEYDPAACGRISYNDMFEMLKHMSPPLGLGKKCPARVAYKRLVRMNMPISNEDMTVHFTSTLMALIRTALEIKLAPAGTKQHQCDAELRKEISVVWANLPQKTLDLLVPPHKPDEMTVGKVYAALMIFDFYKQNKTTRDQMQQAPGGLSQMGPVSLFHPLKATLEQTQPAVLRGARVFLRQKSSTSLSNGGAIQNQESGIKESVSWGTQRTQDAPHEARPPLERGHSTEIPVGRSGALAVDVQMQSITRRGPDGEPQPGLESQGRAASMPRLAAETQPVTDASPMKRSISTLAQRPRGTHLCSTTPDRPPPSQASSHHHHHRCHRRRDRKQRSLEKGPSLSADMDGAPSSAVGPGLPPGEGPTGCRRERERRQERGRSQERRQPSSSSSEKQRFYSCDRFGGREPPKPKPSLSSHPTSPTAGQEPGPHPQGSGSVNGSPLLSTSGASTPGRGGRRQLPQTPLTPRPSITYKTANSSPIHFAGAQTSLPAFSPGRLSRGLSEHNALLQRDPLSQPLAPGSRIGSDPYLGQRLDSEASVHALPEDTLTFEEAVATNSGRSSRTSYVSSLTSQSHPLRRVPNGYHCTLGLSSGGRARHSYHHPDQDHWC
Type: cell-based
Procedure, shortened: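 HEK293 cells stably co-expressing CaV2.2 with alpha2-delta and beta subunits plus Kir2.3, loaded with 2 μM Fluo 4 and pre-incubated 15 min at 25° C with compound in 1 mM or 30 mM KCl buffer (pH 7.4; latter promotes inactivated state). Depolarized by KCl addition; peak fluorescence amplitude normalized to baseline gives inhibition.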
With `CC1(S(=O)(=O)c2cc(F)cc(C(F)(F)F)c2)CCOC(c2ncc(S(C)(=O)=O)cc2Cl)C1` (stereo not drawn) [SC-215, 3-Chloro-2-[4-[[3-fluoro-5-(trifluoromethyl)-phenyl]sulfonyl]-4-methyl-tetrahydro-pyran-2-yl]-5-methylsulfonyl-pyridine] the “Activity Category: %-Inhib (CaV2.2) @3 μM @30 mM KCl” value (“Activity Category: %-Inhib” below) was “B (%-Inhibition >75% up to ≤95%)”.
For `CC1(S(=O)(=O)c2cccc(C(F)(F)F)c2)CCOC(c2nnc(C(F)(F)F)o2)C1` (single isomer, unassigned) [SC-122, 2-[4-Methyl-4-[[3-(trifluoromethyl)phenyl]sulfonyl]-tetrahydro-pyran-2-yl]-5-(trifluoromethyl)-[1,3,4]oxadiazole], the “Activity Category: %-Inhib” value was “B (%-Inhibition >75% up to ≤95%)”.
For `CC1(S(=O)(=O)c2cccc(C(F)(F)F)c2)CCOC(c2cnc(C3CC3)nc2)C1` (stereo not drawn) [SC-204, 2-Cyclopropyl-5-[4-methyl-4-[[3-(trifluoromethyl)phenyl]sulfonyl]-tetrahydro-pyran-2-yl]-pyrimidine], the “Activity Category: %-Inhib” value was “B (%-Inhibition >75% up to ≤95%)”.
`CC1(S(=O)(=O)c2cccc(C(F)(F)F)c2)CCOC(c2nnc(C3CC3)o2)C1` (single isomer, unassigned) [SC-128, 2-Cyclopropyl-5-[4-methyl-4-[[3-(trifluoromethyl)phenyl]sulfonyl]-tetrahydro-pyran-2-yl]-[1,3,4]oxadiazole] was tested, and the “Activity Category: %-Inhib” value was “B (%-Inhibition >75% up to ≤95%)”.
With `CC(C)c1nnc(C2CC(C)(S(=O)(=O)c3cccc(C(F)(F)F)c3)CCO2)o1` (single isomer, unassigned) [SC-126, 2-Isopropyl-5-[4-methyl-4-[[3-(trifluoromethyl)phenyl]sulfonyl]-tetrahydro-pyran-2-yl]-[1,3,4]oxadiazole] the “Activity Category: %-Inhib” value was “B (%-Inhibition >75% up to ≤95%)”.
`CC1(S(=O)(=O)c2cccc(C(F)(F)F)c2)CCOC(c2cncc(S(C)(=O)=O)c2)C1` (stereo not drawn) [SC-101, 3-Methylsulfonyl-5-[4-methyl-4-[[3-(trifluoromethyl)phenyl]sulfonyl]-tetrahydro-pyran-2-yl]-pyridine] was tested, and the “Activity Category: %-Inhib” value was “B (%-Inhibition >75% up to ≤95%)”.
For `CC1(S(=O)(=O)c2cccc(OC(F)F)c2)CCOC(c2ncc(S(C)(=O)=O)cc2Cl)C1` (stereo not drawn) [SC-436, 3-Chloro-2-[4-[[3-(difluoro-methoxy)-phenyl]sulfonyl]-4-methyl-tetrahydro-pyran-2-yl]-5-methylsulfonyl-pyridine], the “Activity Category: %-Inhib” value was “C (%-Inhibition >40% up to ≤75%)”.

Same assay, conditions: HEK293, 3 μM test compound; alternative assay buffer 30 mM KCl (inactivated channel state); HEK293 cells stably expressing human CaV2.2; read-out: Activity Category: %-Inhib (CaV2.2) @3 μM @30 mM KCl
Work on `CC(C)c1cccc(S(=O)(=O)C2(C)CCOC(c3ncc(S(C)(=O)=O)cc3Cl)C2)c1` (stereo not drawn) [SC-446, 3-Chloro-2-[4-[(3-isopropyl-phenyl)sulfonyl]-4-methyl-tetrahydro-pyran-2-yl]-5-methylsulfonyl-pyridine] yielded an inhibition at 3 µM of 75 to 95%.
With `O=S(=O)(c1cccc(C(F)(F)F)c1)C1CCOC(c2cccc(C(F)(F)F)n2)C1` (stereo not drawn) [SC-350, 2-(Trifluoromethyl)-6-[4-[[3-(trifluoromethyl)phenyl]sulfonyl]-tetrahydro-pyran-2-yl]-pyridine] the inhibition at 3 µM was greater than 95%.
Work on `CC1(S(=O)(=O)c2cccc(C(F)(F)F)c2)CCOC(c2ncc(C(F)F)cc2Cl)C1` (stereo not drawn) [SC-236, 3-Chloro-5-(difluoro-methyl)-2-[4-methyl-4-[[3-(trifluoromethyl)phenyl]sulfonyl]-tetrahydro-pyran-2-yl]-pyridine] yielded an inhibition at 3 µM of 75 to 95%.
`CCC1(S(=O)(=O)c2cccc(C(F)(F)F)c2)CCOC(c2nnc(C(F)(F)F)o2)C1` (racemic) [SC-242, 2-[4-Ethyl-4-[[3-(trifluoromethyl)phenyl]sulfonyl]-tetrahydro-pyran-2-yl]-5-(trifluoromethyl)-[1,3,4]oxadiazole] was tested, and the inhibition at 3 µM was 40 to 75%.
Work on `Cn1nc(S(C)(=O)=O)cc1C1CC(C)(S(=O)(=O)c2cccc(C(F)(F)F)c2)CCO1` (racemic) [SC-433, 1-Methyl-3-methylsulfonyl-5-[4-methyl-4-[[3-(trifluoromethyl)phenyl]sulfonyl]-tetrahydro-pyran-2-yl]-1H-pyrazole] yielded an inhibition at 3 µM of 40 to 75%.
